Test results published in the supplement of paper PMC10477900.
Structures can show the parent of a compound that is named as a salt.

Key:
HCT116 [1] = assay: viability inhibition vs untreated; higher = more cytotoxic; conditions: 72 h
HCT116 [2] = conditions: 72 h
Description: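 HCT116 control and MTA1-KO (CRISPR) HCT116 cells were seeded in 384-well plates (800 cells/well), treated 16 h later with 237 metabolism-related anticancer drugs at five doses (10 uM, 2 uM, 400 nM, 80 nM, 16 nM) for 72 h, two replicates; viability by CCK8. Values are % inhibition of viability relative to untreated cells, plus fitted IC50.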

| SMILES | viability inhibition (HCT116 [1]; genotype: MTA1-KO, 16 nM) | viability inhibition (HCT116 [1]; genotype: MTA1-KO, 80 nM) | viability inhibition (HCT116 [1]; genotype: MTA1-KO, 400 nM) | viability inhibition (HCT116 [1]; genotype: MTA1-KO, 2000 nM) | viability inhibition (HCT116 [1]; genotype: MTA1-KO, 10000 nM) | viability inhibition (HCT116 [1]; genotype: control, 16 nM) | viability inhibition (HCT116 [1]; genotype: control, 80 nM) | viability inhibition (HCT116 [1]; genotype: control, 400 nM) | viability inhibition (HCT116 [1]; genotype: control, 2000 nM) | viability inhibition (HCT116 [1]; genotype: control, 10000 nM) | IC50 (HCT116 [2]; genotype: MTA1-KO) | IC50 (HCT116 [2]; genotype: control) |
| --- | --- | --- | --- | --- | --- | --- | --- | --- | --- | --- | --- | --- |
| CC1(C)OCCn2c1nc1c(N3CCOCC3)nc(-c3cnc(N)nc3)nc12 [GDC0084] | -2.94% | 9.67% | 48% | 77.1% | 83.3% | 7.86% | 5.85% | 42.9% | 78.2% | 76.1% | 327 nM | 356 nM |
| O=C1[C@H](CC[C@H](O)c2ccc(F)cc2)[C@@H](c2ccc(O)cc2)N1c1ccc(F)cc1 [Ezetimibe] | -4.11% | 3.58% | 10.6% | 5.65% | 0.125% | -7.56% | 2.58% | 22% | 25.8% | 31.9% | > 10000 nM | > 10000 nM |
| CC(=NNC(=S)N1CCC1)c1ccccn1 | 113% | 110% | 111% | 108% | 107% | 107% | 110% | 95.8% | 105% | 111% | < 16 nM | < 16 nM |
| N#CCCCSC(=N)N [Kevetrin hydrochloride] | 12.4% | 15% | 12.2% | 33.3% | 57.5% | 16.1% | 19.7% | 23% | -4.7% | 23.9% | 2380 nM | > 10000 nM |
| Nc1nc2[nH]cc(CCc3ccc(C(=O)N[C@@H](CCC(=O)O)C(=O)O)cc3)c2c(=O)[nH]1 [Pemetrexed disodium] | -3.16% | 1.56% | 17.8% | 28.6% | 32.9% | 21.1% | 13.2% | 10.5% | 70.6% | 69.4% | > 10000 nM | 1180 nM |
| CC1=C(CSC(=S)N2CCCCC2)C(=O)c2ccccc2C1=O [PKM2 inhibitor] | -2.72% | -15.5% | -11% | 79.7% | 65.9% | -0.424% | -10.4% | -5.1% | 5.17% | 33.3% | 861 nM | > 10000 nM |
| CC(C)(Sc1cc(C(C)(C)C)c(O)c(C(C)(C)C)c1)Sc1cc(C(C)(C)C)c(O)c(C(C)(C)C)c1 [Probucol] | -5.9% | -11% | -1.83% | -5.06% | -0.265% | 6.44% | 11.6% | -2.62% | 16.6% | 9.78% | > 10000 nM | > 10000 nM |
| N#CNC(=NCCCCCCOc1ccc(Cl)cc1)Nc1ccncc1 [CHS 828] | -0.922% | -1.84% | 18.8% | 41.1% | 49% | -11.1% | 18.5% | 30.7% | 59.8% | 79.4% | 535 nM | 1850 nM |
| CC(C)n1c(/C=C/[C@H](O)C[C@H](O)CC(=O)O)c(-c2ccc(F)cc2)c2ccccc21 (racemic) [Fluvastatin sodium salt] | 12.1% | 16.7% | 12.8% | 19.3% | 60.4% | 5.71% | 10.5% | 12.1% | 38% | 32.9% | 8960 nM | > 10000 nM |
| COc1ccc(-c2ccc3c(N4CCOC[C@@H]4C)nc(N4CCOC[C@@H]4C)nc3n2)cc1CO [AZD8055] | -21.9% | -16.3% | 15.5% | 41.3% | 67.5% | 0.243% | 13.1% | 36.1% | 46.1% | 37.6% | 843 nM | > 10000 nM |
| CCNC(=O)Nc1ccc(-c2nc(N3CCOC[C@@H]3C)c3c(n2)C(C)(C)S(=O)(=O)C3)cc1 [CZ415] | -6.27% | -12.8% | 23.6% | 61.9% | 75.6% | -5.97% | 12.9% | 20.8% | 61.7% | 60.1% | 501 nM | 552 nM |
| CCCC(=O)O[C@]1(C(=O)CO)CC[C@H]2[C@@H]3CCC4=CC(=O)CC[C@]4(C)[C@H]3[C@@H](O)C[C@@]21C [Hydrocortisone butyrate] | -3.78% | -0.209% | -6.9% | -15.3% | 17.3% | -10.8% | -15% | -3.07% | -16.7% | 41.3% | > 10000 nM | > 10000 nM |
| Cc1ccc(NC(=O)Nc2cc(-c3ccccc3-c3nn[nH]n3)ccc2N(CC(C)C)CC(C)C)cc1 [DO-IN-2] | -2.66% | 13.6% | 7.91% | 10.9% | -6.41% | 4.06% | 0.568% | -3.13% | -1.86% | 41.6% | > 10000 nM | > 10000 nM |
| NCCCC(N)(C(=O)O)C(F)F (stereo not given) [Eflornithine hydrochloride Monohydrate] | -16.1% | -27.6% | -24% | -21.9% | -20.4% | 11.3% | 1.76% | -3.16% | 0.852% | 61.6% | > 10000 nM | 9470 nM |
| Nc1ncnc2c1ncn2[C@@H]1O[C@H](COP(=O)(O)O)[C@@H](O)[C@H]1O [Adenosine 5'-monophosphate] | 1.56% | 3.02% | 2% | -3.03% | 4.43% | 9.4% | 14.9% | 9.53% | 10.4% | 17.4% | > 10000 nM | > 10000 nM |
